Assay results taken from patent publication US20260042746A1, “2(1H)-PYRIDINIMINE DERATIVE” (SUMITOMO PHARMA CO., LTD., priority 2022, published 2026).

System: α-synuclein aggregate
Test: Test 2: suppressing the accumulation of α-synuclein aggregate in neurospheroid from PLA2G6 mutant human iPS cells
Type: cell-based
Settings: compound added day 4, measured day 9, DMSO = 100%; for activity at 0.1 µM: 100 nM, read-out: Amount of aggregate (%) 100 nM; for activity at 1 µM: 1000 nM, read-out: Amount of aggregate (%) 1000 nM
Protocol: Test 2: Evaluation of Suppressing the Accumulation of α-Synuclein Aggregate with Neurospheroid Prepared from Human iPS Cells with a Mutation in PLA2G6 Gene
(1) Induction of Differentiation from Human iPS Cell to Neural Cell
Neural stem cells were induced from PLA2G6 gene mutant iPS cells with PSC Neuronal Induction Medium (Thermo Fisher Scientific Inc., cat #A1647801). Neurospheroid was prepared from the induced neural stem cells by three-dimensional culture system, and preserved with BrainPhys Neuronal Medium (STEMCELL Technologies, cat #ST-05793) comprising NeuroCult SM1 Neuronal Supplement, N2 Supplement-A, 20 ng/mL BDNF, 20 ng/mL GDNF, 1 mM dibutyryl cAMP, and 200 nM ascorbic acid. Half of the culture medium was replaced on day 2 and day 4 after the induction of differentiation.
The test compound was diluted with the culture medium so as to be twice the final concentration, and an equal volume of the twice-concentrated solution was added to each well when half of the culture medium was replaced on day 4 after induction of differentiation.
(2) Evaluation of the Amount of α-Synuclein Aggregate
From the neurospheroid 9 days after the induction of differentiation, proteins were extracted with a TBS solution containing 1% TritionX-100, and the extracted proteins were subjected to a protein analysis with Simple Western system (Protein Simple, Inc., cat #SM-W008) using an α-synuclein antibody (Thermo Fisher Scientific Inc., cat #AHB0261) to measure the amount of the α-synuclein aggregate.
Assuming that the amount of the aggregate in the neurospheroid added with a DMSO solution is 100%, the amount of the aggregate in the neurospheroid added with each test compound was evaluated.

Compound	activity at 0.1 µM	activity at 1 µM
Cc1ccn(C)/c(=N/C(=O)C2(C)COC2)c1 [Example 4]	10%	120%
CCC1(C(=O)/N=c2\cc(C)ccn2C)COC1 [Example 5]	113%	91%
Cn1ccc(C(F)(F)F)c/c1=N\C(=O)C1(C)COC1 [Example 6]	38%	26%
CCC1(C(=O)/N=c2\cc(C(F)(F)F)ccn2C)COC1 [Example 7]	40%	66%
COc1ccn(C)/c(=N/C(=O)C2(C)COC2)c1 [Example 8]	58%	61%
CCn1ccc(OC)c/c1=N\C(=O)C1(C)COC1 [Example 10]	25%	8%
CCn1ccc(OC)c/c1=N\C(=O)C1(CC)COC1 [Example 11]	65%	7%
CCOc1ccn(C)/c(=N/C(=O)C2(C)COC2)c1 [Example 12]	19%	10%
CCOc1ccn(C)/c(=N/C(=O)C2(CC)COC2)c1 [Example 13]	33%	13%
Cn1ccc(OC(F)(F)F)c/c1=N\C(=O)C1(C)COC1 [Example 14]	21%	7%
CCC1(C(=O)/N=c2\cc(OC(F)(F)F)ccn2C)COC1 [Example 15]	2%	120%
Cn1ccc(F)c/c1=N\C(=O)C1(C)COC1 [Example 16]	73%	62%
CCC1(C(=O)/N=c2\cc(F)ccn2C)COC1 [Example 17]	77%	7%
CCn1ccc(F)c/c1=N\C(=O)C1(C)COC1 [Example 18]	30%	26%
CCn1ccc(F)c/c1=N\C(=O)C1(CC)COC1 [Example 19]	112%	19%
Cn1ccc(Cl)c/c1=N\C(=O)C1(C)COC1 [Example 20]	16%	49%
CCC1(C(=O)/N=c2\cc(Cl)ccn2C)COC1 [Example 21]	37%	7%
CCn1ccc(Cl)c/c1=N\C(=O)C1(C)COC1 [Example 22]	28%	48%
CCn1ccc(Cl)c/c1=N\C(=O)C1(CC)COC1 [Example 23]	56%	11%
Cc1cc/c(=N\C(=O)C2(C)COC2)n(C)c1 [Example 24]	121%	58%
CCC1(C(=O)/N=c2\ccc(C)cn2C)COC1 [Example 25]	73%	21%
Cn1cc(C(F)(F)F)cc/c1=N\C(=O)C1(C)COC1 [Example 26]	23%	38%

Compound	activity at 0.1 µM	activity at 1 µM
CCC1(C(=O)/N=c2\ccc(C(F)(F)F)cn2C)COC1 [Example 27]	19%	28%
COc1cc/c(=N\C(=O)C2(C)COC2)n(C)c1 [Example 28]	47%	98%
CCC1(C(=O)/N=c2\ccc(OC)cn2C)COC1 [Example 29]	89%	33%
Cn1cc(F)cc/c1=N\C(=O)C1(C)COC1 [Example 30]	50%	59%
Cn1cc(Cl)cc/c1=N\C(=O)C1(C)COC1 [Example 32]	33%	31%
CCC1(C(=O)/N=c2\ccc(Cl)cn2C)COC1 [Example 33]	33%	50%
Cc1c/c(=N\C(=O)C2(C)COC2)n(C)cc1C [Example 34]	18%	85%
CCC1(C(=O)/N=c2\cc(C)c(C)cn2C)COC1 [Example 35]	95%	97%
Cc1c/c(=N\C(=O)C2(C)COC2)n(C)cc1F [Example 36]	13%	16%
CCC1(C(=O)/N=c2\cc(C)c(F)cn2C)COC1 [Example 37]	29%	53%
Cc1c/c(=N\C(=O)C2(C)COC2)n(C)cc1Br [Example 38]	21%	33%
CCC1(C(=O)/N=c2\cc(C)c(Br)cn2C)COC1 [Example 39]	15%	94%
CCC1(C(=O)/N=c2\cc(OC)c(Cl)cn2C)COC1 [Example 41]	18%	45%
Cn1cccc/c1=N\C(=O)C1CCN(CC(F)(F)F)CC1 [Example 42]	82%	96%
Cn1cccc/c1=N\C(=O)C1(C)CNC1 [Example 43, 3-Methyl-N-[(2E)-1-methylpyridin-2(1H)-ylidene]azetidine-3-carboxamide]	49%	57%
COc1ccn(C)/c(=N/C(=O)C2(C)CNC2)c1 [Example 44]	23%	10%
CCn1ccc(OC)c/c1=N\C(=O)C1(C)CNC1 [Example 45]	25%	35%
Cn1cc(F)cc/c1=N\C(=O)C1(C)CNC1 [Example 46]	85%	49%
Cc1cc/c(=N\C(=O)C2(C)CNC2)n(C)c1 [Example 47]	25%	40%
Cn1cc(C(F)(F)F)cc/c1=N\C(=O)C1(C)CNC1 [Example 48]	63%	68%
CN1CC(C)(C(=O)/N=c2\ccccn2C)C1 [Example 49, 1,3-Dimethyl-N-[(2E)-1-methylpyridin-2(1H)-ylidene]azetidine-3-carboxamide]	78%	74%
CCn1ccc(OC)c/c1=N\C(=O)C1(C)CN(C)C1 [Example 52]	68%	60%

Compound	activity at 0.1 µM	activity at 1 µM
CCOc1ccn(C)/c(=N/C(=O)C2(C)CN(C)C2)c1 [Example 53]	16%	92%
CN1CC(C)(C(=O)/N=c2\cc(OC(F)(F)F)ccn2C)C1 [Example 54]	18%	13%
Cc1cc/c(=N\C(=O)C2(C)CN(C)C2)n(C)c1 [Example 55]	92%	74%
CN1CC(C)(C(=O)/N=c2\ccc(F)cn2C)C1 [Example 56]	30%	68%
Cc1c/c(=N\C(=O)C2(C)CN(C)C2)n(C)cc1C [Example 57]	13%	31%
Cc1c/c(=N\C(=O)C2(C)CN(C)C2)n(C)cc1F [Example 58]	36%	17%
Cc1c/c(=N\C(=O)C2(C)CN(C)C2)n(C)cc1Br [Example 59]	6%	4%
Cn1cccc/c1=N\C(=O)N1CCOCC1 [Example 61, N-[(2E)-1-methylpyridin-2(1H)-ylidene]morpholine-4-carboxamide]	73%	53%
Cn1cccc/c1=N\C(=O)C1CCCO1 (centres unmarked) [Example 62]	76%	79%
Cn1cccc/c1=N\C(=O)C1CCOC(C)(C)C1 (centres unmarked) [Example 64]	69%	72%
CN1CCC(C(=O)/N=c2\ccccn2C)CC1 [Example 65]	86%	67%
Cn1cccc/c1=N\C(=O)C1CNC1 [Example 66]	61%	66%
Cn1cccc/c1=N\C(=O)C1CCNC1 (centres unmarked) [Example 67]	62%	72%
Cn1cccc/c1=N\C(=O)C1CCNCC1 [Example 68]	80%	31%
CN1CC(C(=O)/N=c2\ccccn2C)C1 [Example 69]	89%	41%
CN1CCC(C(=O)/N=c2\ccccn2C)C1 (centres unmarked) [Example 70]	77%	31%
CC(C)N1CC(C)(C(=O)/N=c2\ccccn2C)C1 [Example 71, 3-Methyl-N-[(2E)-1-methylpyridin-2(1H)-ylidene]-1-(propan-2-yl)azetidine-3-carboxamide]	64%	73%
Cn1cccc/c1=N\C(=O)C1(C)CN(C2CC2)C1 [Example 72, 1-Cyclopropyl-3-methyl-N-[(2E)-1-methylpyridin-2(1H)-ylidene]azetidine-3-carboxamide]	64%	75%
Cn1cccc/c1=N\C(=O)C1(C)CN(CC(F)(F)F)C1 [Example 73, 3-Methyl-N-[(2E)-1-methylpyridin-2(1H)-ylidene]-1-(2,2,2-trifluoroethyl)azetidine-3-carboxamide]	79%	76%
Cn1cccc/c1=N\C(=O)N1CCOCC1(C)C [Example 74, 3,3-Dimethyl-N-[(2E)-1-methylpyridin-2(1H)-ylidene]morpholine-4-carboxamide]	30%	64%
